Read-outs that look alike come from different tables or passages of the source.
Key:
[1] = Microsomal stability, rat liver microsomes; format: in vitro ADME; details: pH 7.4
Procedure: (§1) . Zero time points were prepared by adding ice-cold methanol to a mixture of the compound with cofactors prior to the addition of microsomes. […]. Intrinsic clearance (CLint) was calculated using the following formula: [drawing 1] where V = incubation volume per milligram of microsomal protein (μL/mg) and t1/2 = microsomal half-life.

D2 receptor = details: cited from earlier work
[2] = Cytotoxicity assay (CellTiter-Glo) on normal human dermal fibroblasts; format: cell-based; details: normal human dermal fibroblasts (NHDF)
Procedure: The cytotoxicity of the compounds was evaluated in nontumor normal human dermal fibroblasts (NHDF) purchased from ATCC (PCS-201-012, Manassas, VA, USA). The cells were negatively tested for the presence of mycoplasma (cat. #: LT07-318 MycoAlert Mycoplasma Detection kit, Lonza). The cells were cultivated in DMEM high glucose 4.5 g/L medium (cat. #: R8758, Merck, Germany). The medium was supplemented with 10% fetal bovine serum (cat. #: F7524, Merck, Germany; inactivated at 56 °C for 30 min) and 1.0% of L-glutamine (cat. #: G7513, Merck, Germany) without antibiotics. Cells were seeded in 384-well format white micro plates (cat. #: 164610, Nunc, Thermo Fisher Scientific, USA) at a concentration of 60,000 cells per mL and left to rest overnight. Next day, 1 and 10 μM concentrations of the tested compounds were added in triplicates. The cells were cultivated at 37 °C and 5% CO2 for 72 h after which a luminescent cell viability assay (CellTiter-Glo 2.0, cat. #: Promega, Madison, USA) was added. The plate was left on a shaker (350 rpm) in the dark for 20 min at RT. Luminescence was measured by a Spark multimode reader from Tecan (Tecan Group Ltd., Switzerland). The signal of the compound-treated cells was related to the value of the untreated control, which was arbitrarily set to 100% viability.

[3] = Microsomal stability, human liver microsomes; format: in vitro ADME; details: pooled liver microsomes, pH 7.4, read-out: Microsomal stability CLint, hum
Procedure: as §1

D3 receptor = details: cited from earlier work
[4] = Plasma stability assay, rat plasma; format: in vitro ADME
in vitro = in vitro ADME; details: human, Caco-2; for Papp A→B at 3 h, 5 µM: read-out: Caco-2 permeability Papp A–B
Procedure: A Transwell system consisting of two compartments separated by a monolayer of differentiated Caco-2 cells was employed for the intestinal permeability evaluation. Thanks to the ability of Caco-2 cells to become polarized, bidirectional transport (A–B and B–A) could be measured and the efflux ratio calculated.
The transepithelial bidirectional transport of tested compounds (5 μM, pH 7.4/7.4) across the Caco-2 monolayers was studied using the BD BioCoat HTS Caco-2 assay system (BD Biosciences, Bedford, MA) as described in detail elsewhere.[47] Aliquots were collected from the donor and acceptor compartment at the end of the transport period (3 h), the integrity of monolayers was verified using Lucifer Yellow dye, and the compounds were quantified using LC–MS/MS (Triple Quad 6500+, Sciex). The apparent permeability coefficient (Papp) was calculated from the following equation: Papp = (dQ/dt)/C0 × A, where dQ/dt is the rate of absorption of the drug across the cells, C0 is the donor compartment concentration at time zero, and A is the area of the monolayer. The efflux ratio was expressed as (Papp B–A)/(Papp A–B). Recovery (%) was determined as (total compound mass in donor and receiver compartments at the end of the incubation/initial compound mass in the donor compartment) × 100.

[5] = Plasma stability assay, human plasma; format: in vitro ADME; details: pooled plasma, read-out: Plasma stability % remaining at 6 h, hum
Procedure: […] The reactions were terminated by adding 4 vol of ice-cold methanol, and the samples were then mixed vigorously, frozen at −20 °C for 1 h, and left overnight at 8 °C. After that, the samples were centrifuged, and the supernatant was analyzed by means of LC–MS/MS Sciex 6500 triple quadrupole (Sciex, Framingham, MA, USA). Zero time points were prepared by adding ice-cold methanol to the compound prior to the addition of the plasma.

ADRA1A = target: T1, ADRA1A (Homo sapiens, UniProt P35348); details: read-out: ADRA1A IC50; antagonist activity, receptor stimulated with EC80 of epinephrine, Chem-1 cells
T1 sequence (P35348 1-466): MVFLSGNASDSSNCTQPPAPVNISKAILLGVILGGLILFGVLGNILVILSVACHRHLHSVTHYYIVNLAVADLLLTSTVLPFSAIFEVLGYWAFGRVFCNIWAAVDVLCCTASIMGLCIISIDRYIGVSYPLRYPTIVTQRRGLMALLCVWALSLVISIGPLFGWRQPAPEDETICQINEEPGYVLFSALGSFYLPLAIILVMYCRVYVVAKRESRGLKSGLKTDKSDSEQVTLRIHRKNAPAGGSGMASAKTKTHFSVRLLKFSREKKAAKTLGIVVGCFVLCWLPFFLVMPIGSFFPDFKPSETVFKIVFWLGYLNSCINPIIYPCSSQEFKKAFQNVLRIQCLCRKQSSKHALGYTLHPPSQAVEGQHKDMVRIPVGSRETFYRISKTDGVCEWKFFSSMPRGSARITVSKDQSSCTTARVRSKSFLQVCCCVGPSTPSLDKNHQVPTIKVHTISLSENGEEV
Procedure: All prepared compounds were tested for their antagonistic activity using calcium flux assays on cells overexpressing the ADRA2A or ADRA1A adrenergic receptor as a primary screen (Table 2).
Chem-1 cells overexpressing ADRA2A or 1A adrenergic receptors were purchased from Merck Millipore (cat. #: HTS096RTA and HTS087RTA; Merck, Germany). The cells were cultured according to the manual. […] After 30 min of incubation with the assay buffer at 37 °C and 5% CO2, the cells were incubated at RT in a dark place for another 15 min. […] All compounds were added by an Agilent Bravo Automated Liquid Handling Platform (Agilent Technologies, USA). […] Before each kinetic measurement, the background fluorescence (F0) was measured, and the result was calculated as (Fmax – F0)/F0.

[6] = 10 uM, read-out: NHDF viability at 10 uM (supplement csv)
[7] = 10 μM, untreated control = 100%, read-out: NHDF Viability 10 μM
[8] = human liver microsomes 0.5 mg/mL, 10 μM compound

| SMILES | microsomal CLint at 10 µM ([1]; rat liver microsomes) | D2 receptor pKi (D2 receptor) | viability at 72 h, 1 µM [2] | viability at 72 h, 10 µM [2, 6] | viability at 72 h, 10 µM [2, 7] | microsomal CLint at 10 µM [3, 8] | affinity toward the D3 receptor (D3 receptor) | remaining at 6 h, 5 μM [4] | Papp B→A at 3 h, 5 µM (in vitro; 5 μM, pH 7.4/7.4, 3 h, read-out: Caco-2 permeability Papp B–A) | remaining at 6 h, 5 μM ([5]; human plasma, 5 μM, 37 °C) | IC50 (ADRA1A) | recovery at 3 h, 5 µM (in vitro) | Papp A→B at 3 h, 5 µM (in vitro; 5 μM, pH 7.4/7.4, 3 h) | microsomal CLint at 10 µM ([1]; rat, liver microsomes) | microsomal CLint at 10 µM ([3]; human) | remaining at 6 h, 5 μM ([5]; human) |
| --- | --- | --- | --- | --- | --- | --- | --- | --- | --- | --- | --- | --- | --- | --- | --- | --- |
| COC(=O)[C@@H]1[C@H]2C[C@H]3c4[nH]c5ccccc5c4CCN3C[C@@H]2CC[C@@H]1O [Compound 1, Yohimbine, reference compound] | 2 µL/min/mg | 6.4 | 112% | 105% | 105% | 7 ± 1 µL/min/mg | negligible | 90 ± 2% | 23 ± 8 ×10⁻⁶ cm/s | 106% | – | – | – | – | – | – |
| CCOC(=O)[C@@H]1[C@H]2C[C@H]3c4[nH]c5ccccc5c4CCN3C[C@@H]2CC[C@@H]1O [Compound 3a, 17-α-Hydroxyyohimban-16-α-carboxylic Acid Ethyl Ester] | 3 µL/min/mg | – | 111% | 108% | 108% | 14 µL/min/mg | – | 52% | – | 109 ± 1% | 3340 nM | – | – | – | – | – |
| CC(C)OC(=O)[C@@H]1[C@H]2C[C@H]3c4[nH]c5ccccc5c4CCN3C[C@@H]2CC[C@@H]1O [Compound 3b, 17-α-Hydroxyyohimban-16-α-carboxylic Acid Isopropyl Ester] | 3 ± 1 µL/min/mg | – | 108% | 102% | 102% | 17 ± 1 µL/min/mg | – | 89% | – | 102% | 4160 nM | – | – | – | – | – |
| CC(C)CCOC(=O)[C@@H]1[C@H]2C[C@H]3c4[nH]c5ccccc5c4CCN3C[C@@H]2CC[C@@H]1O [Compound 3c, 17-α-Hydroxyyohimban-16-α-carboxylic Acid (3-Methylbutyl-1-yl) Ester] | – | – | 117% | 114% | 114% | – | – | – | – | – | 2650 nM | – | – | – | – | – |
| O=C(OC1CCCC1)[C@@H]1[C@H]2C[C@H]3c4[nH]c5ccccc5c4CCN3C[C@@H]2CC[C@@H]1O [Compound 3d, 17-α-Hydroxyyohimban-16-α-carboxylic Acid Cyclopentyl Ester] | – | – | 113% | 113% | 117% | – | – | – | – | – | 2640 nM | – | – | – | – | – |
| CC(C)(C)OC(=O)[C@@H]1[C@H]2C[C@H]3c4[nH]c5ccccc5c4CCN3C[C@@H]2CC[C@@H]1O [Compound 3e, 17-α-Hydroxyyohimban-16-α-carboxylic Acid tert-Butyl Ester] | – | – | 123% | 117% | 113% | – | – | – | – | – | 10500 nM | – | – | – | – | – |
| O=C(O[C@@H]1CCNC1)[C@@H]1[C@H]2C[C@H]3c4[nH]c5ccccc5c4CCN3C[C@@H]2CC[C@@H]1O [Compound 4k, 17-α-Hydroxyyohimban-16-α-carboxylic Acid (R)-Pyrrolidin-3-yl Ester] | 1 ± 1 µL/min/mg | – | 99% | 91% | 91% | 3 ± 2 µL/min/mg | – | 110 ± 3% | – | 95 ± 5% | – | 101% | 1 ×10⁻⁶ cm/s | – | – | – |
| N[C@H]1C[C@@H](OC(=O)[C@@H]2[C@H]3C[C@H]4c5[nH]c6ccccc6c5CCN4C[C@@H]3CC[C@@H]2O)C1 [Compound 4o, 17-α-Hydroxyyohimban-16-α-carboxylic Acid cis-3-Aminocyclobutyl Ester] | 3 µL/min/mg | – | 84% | 86% | 86% | 2 ± 1 µL/min/mg | – | 75% | – | 97 ± 5% | – | 101% | 1 ×10⁻⁶ cm/s | – | – | – |
| CN1CC[C@H](OC(=O)[C@@H]2[C@H]3C[C@H]4c5[nH]c6ccccc6c5CCN4C[C@@H]3CC[C@@H]2O)C1 [Compound 4p, 17-α-Hydroxyyohimban-16-α-carboxylic Acid (S)-N-Methylpyrrolidin-3-yl Ester] | 1 ± 1 µL/min/mg | – | 88% | 80% | 80% | 10 µL/min/mg | – | 85 ± 2% | – | 109 ± 2% | 3820 nM | – | – | – | – | – |
| O=C(O[C@H]1CCOC1)[C@@H]1[C@H]2C[C@H]3c4[nH]c5ccccc5c4CCN3C[C@@H]2CC[C@@H]1O [Compound 4q, 17-α-Hydroxyyohimban-16-α-carboxylic Acid (S)-Tetrahydrofuran-3-yl Ester] | 5 ± 1 µL/min/mg | – | – | – | 112% | 15 ± 1 µL/min/mg | – | 102 ± 1% | – | 118% | 537 nM | – | – | – | – | – |
| O=C(OC1COC1)[C@@H]1[C@H]2C[C@H]3c4[nH]c5ccccc5c4CCN3C[C@@H]2CC[C@@H]1O [Compound 4r, 17-α-Hydroxyyohimban-16-α-carboxylic Acid Oxetan-3-yl Ester] | – | – | – | 102% | – | – | – | 89 ± 1% | – | – | 1940 nM | – | – | 2 ± 1 µL/min/mg | 16 ± 1 µL/min/mg | 94 ± 14% |
